Several values for one entry are separate records, joined by “and”; a condition that tells them apart may be missing. Equal entries are not always repeated.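 All cell lines were grown in 96-well plates and treated with compound for 48 hours. At the GI50, growth is halved. At the TGI there is no net growth.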

The values that follow come from PubChem BioAssay (NCI).

Some test systems named below: NCI-H23 lung; RXF 393 renal; NCI-H226 lung; NCI/ADR-RES ovarian; T-47D breast; HL-60(TB) leukemia; SNB-75 CNS; HCT-116 colon; UACC-62 melanoma; LOX IMVI melanoma.
Holding throughout (experiment): NCI-60 cell line screen, 48 h

Take `COc1cc(Cl)cc(-c2nn(-c3cccc(NC(=O)Nc4ccc(Cl)c(Cl)c4)c3)cc2-c2ccncc2)c1`: the GI50 with NCI-H23 lung is 2.62 µM; with RXF 393 renal it was 1.96 µM; in the test with NCI-H226 lung, 3.06 µM; in the test on NCI/ADR-RES ovarian it was 2.34 µM; in the test on T-47D breast it was 2.78 µM; in the test on HL-60(TB) leukemia, 2.19 µM. In addition, the GI50 is 2.11 µM with SNB-75 CNS, 2.02 µM in the test on HCT-116 colon, 2.4 µM with UACC-62 melanoma and 2.91 µM with LOX IMVI melanoma. In addition, the TGI in the test with NCI-H23 lung was 9.04 µM; in the test with RXF 393 renal, 7.25 µM; with NCI-H226 lung it was greater than 100 µM; in the test with NCI/ADR-RES ovarian it was 24.9 µM; in the test on T-47D breast it was 18.9 µM; with HL-60(TB) leukemia, 5.68 µM. Further, the TGI with SNB-75 CNS is 48.6 µM; in the test with HCT-116 colon, greater than 100 µM; in the test with UACC-62 melanoma, 16.3 µM; with LOX IMVI melanoma it was 12.4 µM.

On to `NC(CSSCC(N)C(=O)O)C(=O)O` (centres undefined), for which the GI50 with NCI-H23 lung, in the test on RXF 393 renal, in the test with NCI-H226 lung, in the test on NCI/ADR-RES ovarian, with T-47D breast and with HL-60(TB) leukemia was greater than 100 µM in each case. Moreover, the GI50 in the test on SNB-75 CNS, in the test with HCT-116 colon, in the test with UACC-62 melanoma and in the test with LOX IMVI melanoma was greater than 100 µM throughout. The TGI in the test with NCI-H23 lung, in the test with RXF 393 renal, with NCI-H226 lung, in the test with NCI/ADR-RES ovarian, with T-47D breast and with HL-60(TB) leukemia was greater than 100 µM throughout. Also, the TGI in the test with SNB-75 CNS, with HCT-116 colon, in the test with UACC-62 melanoma and with LOX IMVI melanoma was greater than 100 µM throughout.

In the case of `O=Cc1ccc(-c2ccc(-c3nc4ccccc4s3)cc2)s1`, the GI50 in the test on NCI-H23 lung was 84.2 µM; in the test with RXF 393 renal, greater than 100 µM; in the test with NCI-H226 lung, 66.1 µM; with NCI/ADR-RES ovarian it was 40.8 µM; in the test with T-47D breast, greater than 100 µM; in the test on HL-60(TB) leukemia, 34.8 µM. Besides, the GI50 was greater than 100 µM in the test with SNB-75 CNS, 35.3 µM with HCT-116 colon, 22.2 µM in the test on UACC-62 melanoma and 68.1 µM in the test on LOX IMVI melanoma. Besides, the TGI with NCI-H23 lung, in the test with RXF 393 renal, with NCI-H226 lung, in the test on NCI/ADR-RES ovarian, with T-47D breast and in the test on HL-60(TB) leukemia was greater than 100 µM throughout. For the same compound, the TGI in the test with SNB-75 CNS, in the test on HCT-116 colon, with UACC-62 melanoma and in the test with LOX IMVI melanoma was greater than 100 µM in each case.

As to `Cn1cc(C2=C(Nc3ccccc3)C(=O)NC2=O)c2ccccc21`, the GI50 was greater than 25 µM in the test on NCI-H23 lung; greater than 25 µM with RXF 393 renal; greater than 25 µM with NCI-H226 lung; greater than 25 µM in the test with NCI/ADR-RES ovarian; 16.2 µM in the test on T-47D breast; greater than 25 µM in the test on HL-60(TB) leukemia. The GI50 in the test on SNB-75 CNS is greater than 25 µM; in the test on HCT-116 colon it was 16.4 µM; in the test on UACC-62 melanoma, greater than 25 µM; in the test on LOX IMVI melanoma, greater than 25 µM. The TGI in the test on NCI-H23 lung, with RXF 393 renal, with NCI-H226 lung, in the test with NCI/ADR-RES ovarian, with T-47D breast and with HL-60(TB) leukemia was greater than 25 µM in each case. Besides, the TGI in the test with SNB-75 CNS, with HCT-116 colon, in the test with UACC-62 melanoma and in the test on LOX IMVI melanoma was greater than 25 µM each time.

As for `COc1cc2c(c(OC)c1OC)-c1ccc(N=NC(N)=S)c(=O)cc1[C@@H](NC(C)=O)CC2`, the GI50 with NCI-H23 lung was 0.347 µM; with RXF 393 renal, 0.937 µM; with NCI-H226 lung, 2.01 µM; in the test with NCI/ADR-RES ovarian, 17.5 µM; in the test with T-47D breast, 0.361 µM; in the test with HL-60(TB) leukemia, 0.378 µM. The GI50 was 0.256 µM in the test on SNB-75 CNS, 0.396 µM in the test with HCT-116 colon, 0.646 µM with UACC-62 melanoma and 0.618 µM in the test on LOX IMVI melanoma. Also, the TGI in the test with NCI-H23 lung is greater than 100 µM; in the test with RXF 393 renal, greater than 100 µM; in the test with NCI-H226 lung, greater than 29.4 µM; in the test on NCI/ADR-RES ovarian, 49.1 µM; with T-47D breast it was greater than 100 µM; with UACC-62 melanoma, greater than 100 µM. The TGI in the test on LOX IMVI melanoma was greater than 100 µM.

Consider `C[C@@H](CO)NC(=O)c1cc(-c2ccc(Cl)cc2)nn(-c2cnn(C)c2)c1=O`, for which the GI50 was 27.9 µM in the test with NCI-H23 lung; 7.79 µM in the test with RXF 393 renal; 16.4 µM in the test with NCI-H226 lung; 16.7 µM in the test with NCI/ADR-RES ovarian; 25.9 µM in the test with T-47D breast; 13.9 µM with HL-60(TB) leukemia. The GI50 in the test with SNB-75 CNS is 16.7 µM; in the test with HCT-116 colon it was 19.1 µM; in the test with UACC-62 melanoma, 14.5 µM; in the test with LOX IMVI melanoma, 14.6 µM. Moreover, the TGI was greater than 100 µM in the test with NCI-H23 lung; 45.8 µM in the test with RXF 393 renal; 35.1 µM in the test on NCI-H226 lung; 71.9 µM in the test with NCI/ADR-RES ovarian; greater than 100 µM with T-47D breast; 42.3 µM in the test on HL-60(TB) leukemia. Further, the TGI with SNB-75 CNS is 78.1 µM; in the test on HCT-116 colon, greater than 100 µM; with UACC-62 melanoma it was 31.7 µM; in the test with LOX IMVI melanoma, 37.2 µM.

For the compound `Cc1nc2ccccc2nc1N=Nc1ccccc1`, the GI50 in the test on NCI-H23 lung was 14.4 µM; in the test with RXF 393 renal, 23.4 µM; in the test with NCI-H226 lung, 24.6 µM; with NCI/ADR-RES ovarian, 16 µM; in the test with T-47D breast, 10.1 µM; in the test with HL-60(TB) leukemia, 20.6 µM. The GI50 is 18.3 µM in the test with SNB-75 CNS, 31.1 µM in the test with HCT-116 colon, 14.2 µM in the test on UACC-62 melanoma and 23.3 µM in the test on LOX IMVI melanoma. For the same compound, the TGI is 51.1 µM in the test on NCI-H23 lung; greater than 100 µM in the test on RXF 393 renal; greater than 100 µM in the test on NCI-H226 lung; 57.6 µM in the test on NCI/ADR-RES ovarian; 67.7 µM with T-47D breast; 56.6 µM in the test on HL-60(TB) leukemia. The TGI with SNB-75 CNS was greater than 100 µM; with HCT-116 colon, greater than 100 µM; with UACC-62 melanoma, 35.2 µM; with LOX IMVI melanoma it was greater than 100 µM.

As to `COCCOCCOCc1n(Cc2ccc3ccccc3n2)c2ccccc2[n+]1Cc1ccc2ccccc2n1`, the GI50 in the test with NCI-H23 lung was 0.657 µM; in the test on RXF 393 renal it was 1.23 µM; in the test with NCI-H226 lung, 2.44 µM; in the test on NCI/ADR-RES ovarian, greater than 100 µM; in the test with T-47D breast, 0.302 µM; in the test with HL-60(TB) leukemia, 0.26 µM. Moreover, the GI50 in the test with SNB-75 CNS is 0.317 µM; in the test on HCT-116 colon, 1.26 µM; in the test with UACC-62 melanoma, 0.424 µM; with LOX IMVI melanoma it was 1.14 µM. Moreover, the TGI with NCI-H23 lung was 12.2 µM; in the test with RXF 393 renal it was 9.7 µM; in the test on NCI-H226 lung it was 18.4 µM; in the test with NCI/ADR-RES ovarian it was greater than 100 µM; with T-47D breast, 13.1 µM; with HL-60(TB) leukemia it was 1.31 µM. In addition, the TGI in the test on SNB-75 CNS is 4.3 µM; with HCT-116 colon, 11.7 µM; in the test with UACC-62 melanoma, 10.2 µM; with LOX IMVI melanoma it was 10.4 µM.

In the case of `COC1CC(N)C(O)C(C)O1` (centres undefined), the TGI in the test with NCI-H23 lung, with RXF 393 renal, in the test on NCI-H226 lung, in the test on NCI/ADR-RES ovarian, in the test on T-47D breast and in the test on HL-60(TB) leukemia was greater than 100 µM each time. Also, the TGI in the test with SNB-75 CNS, in the test with HCT-116 colon, with UACC-62 melanoma and with LOX IMVI melanoma was greater than 100 µM in each case.

On to `O=C(CC1C=Cc2ccccc2N1C(=O)c1ccccc1)c1ccccc1` (centres undefined), for which the TGI in the test with NCI-H23 lung is greater than 100 µM; in the test on RXF 393 renal, greater than 100 µM; in the test with NCI-H226 lung, 99.9 µM; in the test with NCI/ADR-RES ovarian it was greater than 100 µM; in the test with T-47D breast, greater than 100 µM; in the test on HL-60(TB) leukemia, 43.4 µM. The TGI with SNB-75 CNS was greater than 100 µM; with HCT-116 colon, 45.6 µM; in the test with UACC-62 melanoma, 28.5 µM; with LOX IMVI melanoma, 67.8 µM.

Regarding `COc1ccc2c(c1)-c1nn(CCCN(C)C)c3ccc([N+](=O)[O-])c(c13)N2`, the TGI in the test on NCI-H23 lung is 2.08 µM and 2.3 µM; in the test on RXF 393 renal it was 1.33 µM and 2.05 µM; with NCI-H226 lung, 3.75 µM and 6.86 µM; with NCI/ADR-RES ovarian, 2.93 µM and 1.42 µM; with T-47D breast, 11.4 µM and 2.27 µM; in the test with HL-60(TB) leukemia it was 1.82 µM and 9.36 µM. In addition, the TGI with SNB-75 CNS is 1.02 µM and 3.85 µM; in the test with HCT-116 colon, 4.02 µM and 4.42 µM; in the test on UACC-62 melanoma it was 2.44 µM and 5.2 µM; with LOX IMVI melanoma it was 0.957 µM and 4.08 µM. In addition, the GI50 in the test on RXF 393 renal is 0.274 µM and 0.135 µM; with NCI-H226 lung, 0.25 µM and 0.664 µM; in the test with T-47D breast it was 0.668 µM and 0.308 µM; in the test on HL-60(TB) leukemia, 0.468 µM and 2.9 µM; in the test with SNB-75 CNS it was 0.197 µM and 0.573 µM; in the test on UACC-62 melanoma, 0.314 µM and 0.934 µM. Besides, in the test with LOX IMVI melanoma, the GI50 was 0.101 µM and 0.345 µM.
